Results reported in PMC7470941 (2020).

Legend:
[1] = tested on: FPON1 (DNA, i motif, 5'-fluoromonophosphate) TCCCCC; assay: 19F NMR titration; details: Na+ (50 mM sodium citrate); pH 4.2, 10% D2O, 25 °C; 500 μM FPON1 (125 μM i-motif), 100 μM AMPF reference
[2] = tested on: FP-hTeloC (DNA, i motif, 5'-fluoromonophosphate) TAACCCTAACCCTAACCCTAACCC; assay: 19F NMR titration; details: Na+ (50 mM sodium citrate); apparent; pH 4.2, 10% D2O; 212.5 μM FP-hTeloC, 80 μM AMPF reference
[3] = tested on: FP-hTeloC, ssDNA form at pH 6.4 (DNA, single strand, 5'-fluoromonophosphate) TAACCCTAACCCTAACCCTAACCC; assay: 19F NMR chemical shift change; details: Na+ (10 mM sodium cacodylate, 100 mM NaCl); pH 6.4, 10% D2O; i-motif:ssDNA 45:55; ΔδF = −0.02 ppm
[4] = tested on: hTeloC (DNA, i motif) TAACCCTAACCCTAACCCTAACCC; assay: UV/VIS melting, 295 nm; details: Na+ (50 mM citrate buffer); pH 5.5, 10% D2O; destabilised by excess mitoxantrone
[5] = tested on: FP-hTeloC (DNA, i motif, 5'-fluoromonophosphate) TAACCCTAACCCTAACCCTAACCC; assay: UV/VIS melting, 295 nm; details: Na+ (50 mM citrate buffer); pH 5.5, 10% D2O; 4 μM DNA; destabilised by excess mitoxantrone
[6] = tested on: FP-hTeloC (DNA, i motif, 5'-fluoromonophosphate) TAACCCTAACCCTAACCCTAACCC; assay: 19F NMR melting, i-motif signal; details: Na+ (50 mM citrate buffer); pH 5.5, 10% D2O; 250 μM DNA, two equivalents mitoxantrone (+1.1 °C at 0.3 equivalents)

`C[n+]1ccc(-c2c3nc(c(-c4cc[n+](C)cc4)c4ccc([nH]4)c(-c4cc[n+](C)cc4)c4nc(c(-c5cc[n+](C)cc5)c5ccc2[nH]5)C=C4)C=C3)cc1` gave a Kd [1] of 180 ± 30 µM.
`O=C1c2c(O)ccc(O)c2C(=O)c2c(NCCNCCO)ccc(NCCNCCO)c21` was tested, and the Kd [2] was 70 ± 30 µM, the binding [3] was “weak” and the binding [4] was “yes”. For the same compound, the binding [5] was “yes” and the ΔTm [6] was −3.2 °C.
